Experimental data as given in patent publication US20260217701A1, “SELECTIVE BET INHIBITORS AND USES THEREOF” (Tay Therapeutics Limited, priority 2022, published 2026).
“And” between values parts separate entries of the source, which are not always exact repeats. Equal values may be shown once. Read-outs that look alike come from different tables or passages of the source. Marks after values point to notes of the source that are not given here.

Experiments:
[1] = CIA study: animal body weight; conditions: for Average animal body weight percent change / Average animal body weight: CIA; for Animal body weight percent change (%): individual animals
BRD4 BD2 = target: T1, BRD4 BD2 (Homo sapiens, UniProt O60885); test: NanoBRET bromodomain assay, NanoLuc-BRD4-BD2 in HEK293 cells; type: binding
T1 construct: HEK293 cells were transfected using NanoLuc-BRD4-BD1 or NanoLuc-BRD4-BD2 fusion vectors
Protocol: Plates were then incubated at 37° C.+5% CO2 incubator for 2 hours.
Fold Selectivity Calculated (IC50 BD1/IC50 BD2).

anti-collagen IgG1 = test: CIA model: rat anti-collagen IgG1 levels; type: in vivo, Lewis rats; design: Average rat anti-collagen IgG1 levels, Mean: unit not given here

SMILES: Cn1cc(-c2ccccc2)c(-c2cn(C)c(=O)c3[nH]c(-c4cnn(C(F)(F)F)c4)cc23)cc1=O [Compound A, 6-methyl-4-(1-methyl-2-oxo-5-phenyl-1,2-dihydropyridin-4-yl)-2-(1-(trifluoromethyl)-1H-pyrazol-4-yl)-1,6-dihydro-7H-pyrrolo[2,3-c]pyridin-7-one]
- Average animal body weight percent change ([1]; Day 4, 1 mg/kg): 1.26%
- Average animal body weight ([1]; Day 4, 3 mg/kg): 165
- Average animal body weight percent change ([1]; Day 4, 3 mg/kg): −0.35%
- Average animal body weight ([1]; Day 4, 10 mg/kg): 163
- Average animal body weight percent change ([1]; Day 4, 10 mg/kg): 0.72%
- Average animal body weight ([1]; Day 5, 1 mg/kg): 169
- Average animal body weight percent change ([1]; Day 5, 1 mg/kg): 3.76%
- Average animal body weight ([1]; Day 5, 3 mg/kg): 167
- Average animal body weight percent change ([1]; Day 5, 3 mg/kg): 0.70%
- Average animal body weight ([1]; Day 5, 10 mg/kg): 166
- Average animal body weight percent change ([1]; Day 5, 10 mg/kg): 2.60%
- Average animal body weight ([1]; Day 6, 1 mg/kg): 170
- Average animal body weight percent change ([1]; Day 6, 1 mg/kg): 4.33%
- Average animal body weight ([1]; Day 6, 3 mg/kg): 166
- Average animal body weight percent change ([1]; Day 6, 3 mg/kg): 0.43%
- Average animal body weight ([1]; Day 6, 10 mg/kg): 166
- Average animal body weight percent change ([1]; Day 6, 10 mg/kg): 2.04%
- Average animal body weight ([1]; Day 7, 1 mg/kg): 170
- Average animal body weight percent change ([1]; Day 7, 1 mg/kg): 3.94%
- Average animal body weight ([1]; Day 7, 3 mg/kg): 164
- Average animal body weight percent change ([1]; Day 7, 3 mg/kg): −0.93%
- Average animal body weight ([1]; Day 7, 10 mg/kg): 164
- Average animal body weight percent change ([1]; Day 7, 10 mg/kg): 0.89%
- Average animal body weight ([1]; Day 8, 1 mg/kg): 167
- Average animal body weight percent change ([1]; Day 8, 1 mg/kg): 2.26%
- Average animal body weight ([1]; Day 8, 3 mg/kg): 166
- Average animal body weight percent change ([1]; Day 8, 3 mg/kg): 0.36%
- Average animal body weight ([1]; Day 8, 10 mg/kg): 162
- Average animal body weight percent change ([1]; Day 8, 10 mg/kg): −0.31%
- Animal body weight percent change (%) ([1]; Day 8, Group 5 (CIA + Compound A 1 mg/kg), 1 mg/kg): 4.24% and −4.27% and 4.94% and 5.92% and 1.78% and 2.40% and 1.23%
- Animal body weight percent change (%) ([1]; Day 8, Group 6 (CIA + Compound A 3 mg/kg), 3 mg/kg): −4.76% and 1.75% and −1.14% and 1.20% and −2.40% and 1.23% and 6.37% and 0.64%
- Average animal body weight ([1]; Day 9, 1 mg/kg): 169
- Average animal body weight percent change ([1]; Day 9, 1 mg/kg): 3.79%
- Average animal body weight ([1]; Day 9, 3 mg/kg): 167
- Average animal body weight percent change ([1]; Day 9, 3 mg/kg): 0.75%
- Average animal body weight ([1]; Day 9, 10 mg/kg): 163
- Average animal body weight percent change ([1]; Day 9, 10 mg/kg): 0.36%
- Animal body weight percent change (%) ([1]; Day 9, Group 5 (CIA + Compound A 1 mg/kg), 1 mg/kg): 9.09% and −4.88% and 8.02% and 6.58% and 2.37% and 1.80% and 3.68%
- Animal body weight percent change (%) ([1]; Day 9, Group 6 (CIA + Compound A 3 mg/kg), 3 mg/kg): −3.57% and 0.00% (2×) and 1.71% and 1.20% and 4.19% and 8.28% and 2.56%
- Average animal body weight ([1]; Day 10, 1 mg/kg): 170
- Average animal body weight percent change ([1]; Day 10, 1 mg/kg): 4.20%
- Average animal body weight ([1]; Day 10, 3 mg/kg): 168
- Average animal body weight percent change ([1]; Day 10, 3 mg/kg): 1.65%
- Average animal body weight ([1]; Day 10, 10 mg/kg): 164
- Average animal body weight percent change ([1]; Day 10, 10 mg/kg): 0.89%
- Animal body weight percent change (%) ([1]; Day 10, Group 5 (CIA + Compound A 1 mg/kg), 1 mg/kg): 7.88% and −5.49% and 9.88% and 9.21% and 0.59% and 5.39% and 1.84%
- Animal body weight percent change (%) ([1]; Day 10, Group 6 (CIA + Compound A 3 mg/kg), 3 mg/kg): −3.57% and 0.58% and 1.14% and 1.80% and 0.60% and 2.45% and 6.37%
- Average animal body weight ([1]; Day 11, 1 mg/kg): 170
- Average animal body weight percent change ([1]; Day 11, 1 mg/kg): 4.25%
- Average animal body weight ([1]; Day 11, 3 mg/kg): 169
- Average animal body weight percent change ([1]; Day 11, 3 mg/kg): 1.92%
- Average animal body weight ([1]; Day 11, 10 mg/kg): 165
- Average animal body weight percent change ([1]; Day 11, 10 mg/kg): 1.44%
- Animal body weight percent change (%) ([1]; Day 11, Group 5 (CIA + Compound A 1 mg/kg), 1 mg/kg): 9.09% and −4.27% and 9.88% and 6.58% and 0.59% and 4.79% and 2.45%
- Animal body weight percent change (%) ([1]; Day 11, Group 6 (CIA + Compound A 3 mg/kg), 3 mg/kg): −4.76% and 0.58% and 1.71% and 2.99% and −4.19% and 3.68% and 9.55%
- Average animal body weight ([1]; Day 12, 1 mg/kg): 171
- Average animal body weight percent change ([1]; Day 12, 1 mg/kg): 4.85%
- Average animal body weight ([1]; Day 12, 3 mg/kg): 167
- Average animal body weight percent change ([1]; Day 12, 3 mg/kg): 0.97%
- Average animal body weight ([1]; Day 12, 10 mg/kg): 164
- Average animal body weight percent change ([1]; Day 12, 10 mg/kg): 1.36%
- Animal body weight percent change (%) ([1]; Day 12, Group 5 (CIA + Compound A 1 mg/kg), 1 mg/kg): 10.30% and −3.66% and 8.64% and 6.58% and 2.96% and 5.99% and 1.23%
- Animal body weight percent change (%) ([1]; Day 12, Group 6 (CIA + Compound A 3 mg/kg), 3 mg/kg): −5.95% and 2.92% and 2.86% and 0.00% and −5.39% and 3.68% and 9.55%
- Average animal body weight ([1]; Day 13, 1 mg/kg): 169
- Average animal body weight percent change ([1]; Day 13, 1 mg/kg): 3.78%
- Average animal body weight ([1]; Day 13, 3 mg/kg): 167
- Average animal body weight percent change ([1]; Day 13, 3 mg/kg): 0.88%
- Average animal body weight ([1]; Day 13, 10 mg/kg): 163
- Average animal body weight percent change ([1]; Day 13, 10 mg/kg): 0.66%
- Animal body weight percent change (%) ([1]; Day 13, Group 5 (CIA + Compound A 1 mg/kg), 1 mg/kg): 9.09% and −3.66% and 10.49% and 5.26% and 2.96% and 2.99% and 1.23%
- Animal body weight percent change (%) ([1]; Day 13, Group 6 (CIA + Compound A 3 mg/kg), 3 mg/kg): −3.57% and 2.34% and −5.14% and 3.59% and −5.99% and 3.07% and 8.92%
- Average animal body weight ([1]; Day 14, 1 mg/kg): 170
- Average animal body weight percent change ([1]; Day 14, 1 mg/kg): 3.90%
- Average animal body weight ([1]; Day 14, 3 mg/kg): 167
- Average animal body weight percent change ([1]; Day 14, 3 mg/kg): 0.99%
- Average animal body weight ([1]; Day 14, 10 mg/kg): 162
- Average animal body weight percent change ([1]; Day 14, 10 mg/kg): 0.03%
- Animal body weight percent change (%) ([1]; Day 14, Group 5 (CIA + Compound A 1 mg/kg), 1 mg/kg): 7.88% and −3.05% and 10.49% and 1.97% and 3.55% and 1.80% and 3.07%
- Animal body weight percent change (%) ([1]; Day 14, Group 6 (CIA + Compound A 3 mg/kg), 3 mg/kg): −2.98% and 3.51% and −2.86% and 4.79% and −6.59% and 2.45% and 8.28%
- Average animal body weight ([1]; Day 15, 1 mg/kg): 168
- Average animal body weight percent change ([1]; Day 15, 1 mg/kg): 3.24%
- Average animal body weight ([1]; Day 15, 3 mg/kg): 166
- Average animal body weight percent change ([1]; Day 15, 3 mg/kg): 0.37%
- Average animal body weight ([1]; Day 15, 10 mg/kg): 162
- Average animal body weight percent change ([1]; Day 15, 10 mg/kg): 0.13%
- Average animal body weight ([1]; Day 16, 1 mg/kg): 167
- Average animal body weight percent change ([1]; Day 16, 1 mg/kg): 2.62%
- Average animal body weight ([1]; Day 16, 3 mg/kg): 165
- Average animal body weight percent change ([1]; Day 16, 3 mg/kg): −0.37%
- Average animal body weight ([1]; Day 16, 10 mg/kg): 161
- Average animal body weight percent change ([1]; Day 16, 10 mg/kg): −0.57%
- Average animal body weight ([1]; Day 17, 1 mg/kg): 167
- Average animal body weight percent change ([1]; Day 17, 1 mg/kg): 2.48%
- Average animal body weight ([1]; Day 17, 3 mg/kg): 163
- Average animal body weight percent change ([1]; Day 17, 3 mg/kg): −1.43%
- Average animal body weight ([1]; Day 17, 10 mg/kg): 161
- Average animal body weight percent change ([1]; Day 17, 10 mg/kg): −0.47%
- Average animal body weight ([1]; Day 18, 1 mg/kg): 167
- Average animal body weight percent change ([1]; Day 18, 1 mg/kg): 2.38%
- Average animal body weight ([1]; Day 18, 3 mg/kg): 164
- Average animal body weight percent change ([1]; Day 18, 3 mg/kg): −1.11%
- Average animal body weight ([1]; Day 18, 10 mg/kg): 162
- Average animal body weight percent change ([1]; Day 18, 10 mg/kg): −0.29%
- Average animal body weight ([1]; Day 19, 1 mg/kg): 166
- Average animal body weight percent change ([1]; Day 19, 1 mg/kg): 1.46%
- Average animal body weight ([1]; Day 19, 3 mg/kg): 163
- Average animal body weight percent change ([1]; Day 19, 3 mg/kg): −1.74%
- Average animal body weight ([1]; Day 19, 10 mg/kg): 161
- Average animal body weight percent change ([1]; Day 19, 10 mg/kg): −0.70%
- Average animal body weight ([1]; Day 20, 1 mg/kg): 166
- Average animal body weight percent change ([1]; Day 20, 1 mg/kg): 1.92%
- Average animal body weight ([1]; Day 20, 3 mg/kg): 162
- Average animal body weight percent change ([1]; Day 20, 3 mg/kg): −2.24%
- Average animal body weight ([1]; Day 20, 10 mg/kg): 161
- Average animal body weight percent change ([1]; Day 20, 10 mg/kg): −0.54%
- Average animal body weight ([1]; Day 21, 1 mg/kg): 165
- Average animal body weight percent change ([1]; Day 21, 1 mg/kg): 0.93%
- Average animal body weight ([1]; Day 21, 3 mg/kg): 162
- Average animal body weight percent change ([1]; Day 21, 3 mg/kg): −1.78%
- Average animal body weight ([1]; Day 21, 10 mg/kg): 161
- Average animal body weight percent change ([1]; Day 21, 10 mg/kg): −0.75%
- selectivity for BDII relative to GSK620 (BRD4 BD2): greater than about two orders of magnitude
- Selectivity (BD1/BD2) (BRD4 BD2; nanoBRET assay, given as symbol only, higher number denotes higher selectivity): >>>>
- BD2 (BRD4 BD2; nanoBRET assay, given as symbol only, lower number denotes higher potency): <
- EC50 (BRD4 BD2; previously determined, reference level for rat plasma concentrations (FIG. 4D), read-out: free EC50 BD2 BRD4 (converted)): 18.9 nM
- EC50 (BRD4 BD2; reference level for dog plasma concentrations (Dog PK study #4), read-out: free EC50 BD2 BRD4 (converted)): 14.5 nM
- EC50 (BRD4 BD2; stated with the CIA study PK, domain not stated, read-out: free EC50 (converted)): 17.2 nM
- Average rat anti-collagen IgG1 levels, Mean (anti-collagen IgG1; Group 5 (CIA + Compound A 1 mg/kg)): 1180.61**
- Average rat anti-collagen IgG1 levels, Mean (anti-collagen IgG1; Group 6 (CIA + Compound A 3 mg/kg)): 569.60**
- Average rat anti-collagen IgG1 levels, Mean (anti-collagen IgG1; Group 7 (CIA + Compound A 10 mg/kg)): 220.15**
- Inhibition of IgG1 (anti-collagen IgG1; all three doses): near complete inhibition of IgG1
